Test results from US20230092679A1, “MCL-1 INHIBITOR ANTIBODY-DRUG CONJUGATES AND METHODS OF USE” (NOVARTIS AG, priority 2019, published 2023).
Read-outs that look alike come from different tables or passages of the source.

Assays:
Type in all cases: cell-based
eol1 = assay: In vitro ADC activity, AML cell lines, CellTiter-Glo (Example 20); settings: eol1, 5 days
p31fuj = assay: as above; settings: 5 days
5979hx = assay: as above; settings: 5 days
hel = assay: as above; settings: 5 days
kasumi6 = assay: as above; settings: kasumi6, 5 days
monomac1 = assay: as above; settings: monomac1, 5 days
kasumi1 = assay: as above; settings: kasumi1, 5 days
RS4;11 = assay: CellTiter-Glo proliferation assay (Example 6); settings: CD79b Mcl-1 ADCs and payload P1, 5 days
Description: (§1) Mcl-1 ADCs were tested on nine endogenous cancer cell lines and one isogenic cell line engineered to overexpress a target of interest. Six targets were assessed: HER2, BCMA, CD38, CD48, CD79b, and CD33.
(§2) Cell lines • HER2: HCC1954 (ATCC No. CRL-2338 cultured in RPMI-1640+10% FBS) and HCC2218 (ATCC No. CRL-2343 cultured in RPMI-1640+10% FBS). • BCMA: NCI-H929 (ATCC No. CRL-9068 cultured in RPMI-1640+10% FBS+0.05 mM 2-mercaptoethanol). • CD38: A4-Fuk (JCRB No. JCRB0097 cultured in RPMI-1640+10% FBS) and KMS-21 BM (JCRB No. JCRB1185 cultured in RPMI-1640+10% FBS). • CD48: NCI-H929 (ATCC No. CRL-9068 cultured in RPMI-1640+10% FBS+0.05 mM 2-mercaptoethanol), OPM-2 (DSMZ No. ACC-50 cultured in RPMI-1640+10% FBS) and AMO1 (DSMZ No. ACC-538 cultured in RPMI-1640+20% FBS). • CD79b: RS4;11 (ATCC No. CRL-1873 cultured in RPMI-1640+10% FBS). • CD33: MOLM-13 (DSMZ No. ACC-554 cultured in RPMI-1640+10% FBS) and an isogenic cell line, AMO1-CD33 clone D2. AMO1 cell line was transfected to generate a stable AMO1 cell line expressing the exogenous protein of interest, CD33, AMO1-CD33 clone D2 (cultured in RPMI-1640+20% FBS).
(§3) The ability of Mcl-1 ADCs to inhibit cell proliferation and survival was assessed using a Promega CellTiter-Glo® proliferation assay. Cell lines were cultured in media optimal for their growth at 5% CO2, 37° C. in a tissue culture incubator. Prior to seeding for the proliferation assay, the cells were split at least 2 days before the assay to ensure optimal growth density. On the day of seeding, adherent cells were lifted off tissue culture flasks using 0.25% trypsin. Cell viability and cell density were determined using a cell counter (Vi-Cell XR Cell Viability Analyzer, Beckman Coulter). […] Cells were seeded at a density of 1,000 cells per well in 45 μl of standard growth media. Plates were incubated at 5% CO2, 37° C. overnight in a tissue culture incubator. The next day, free Mcl-1 payload (P1), targeting Mcl-1 ADCs, and non-targeting isotype ADCs were prepared at 10× in standard growth media. The prepared drug treatments were then added to the cells resulting in final concentrations of 0.0005-500 nM and a final volume of 50 μl per well. Each drug concentration was tested in quadruplets. Plates were incubated at 5% CO2, 37° C. for 5 days in a tissue culture incubator, after which cell viability was assessed through the addition of 25 μl of CellTiter Glo® (Promega, Cat. No. G7573), a reagent which lyses cells and measures total adenosine triphosphate (ATP) content. Plates were incubated at room temperature for 10 minutes to stabilize luminescent signals prior to reading using a luminescence reader (EnVision Multilabel Plate Reader, PerkinElmer). To evaluate the effect of the drug treatments, luminescent counts from wells containing untreated cells (100% viability) were used to normalize treated samples. A variable slope model was applied to fit a nonlinear regression curve to the data in GraphPad PRISM version 7.02 software. IC50 and Amax values were extrapolated from the resultant curves.

NCI-H929 = assay: CellTiter-Glo proliferation assay (Example 6); settings: for Amax H929: in %; for IC50: Homo sapiens, NCI-H929, 120 h
Description: as §1, §2, §3

OPM-2 = assay: CellTiter-Glo proliferation assay (Example 6); settings: CD48 Mcl-1 ADCs and payload P1, 5 days
Description: as §1, §2, §3

HCC1954 = assay: CellTiter-Glo proliferation assay (Example 6); settings: HER2 Mcl-1 ADCs and payload P1, 5 days
Description: as §1, §2, §3

MOLM-13 = assay: CellTiter-Glo proliferation assay (Example 6); settings: CD33 Mcl-1 ADCs and payload P1, 5 days
Description: as §1, §2, §3

HCC2218 = assay: CellTiter-Glo proliferation assay (Example 6); settings: HER2 Mcl-1 ADCs and payload P1, 5 days
Description: as §1, §2, §3

[1] = test system: representative cancer cell lines; assay: CellTiter-Glo proliferation assay (Example 6), summary over the cell lines; settings: 120 h, 5 days, read-out: IC50 values (range over cell lines)
Description: Mcl-1 ADCs were tested on nine endogenous cancer cell lines and one isogenic cell line engineered to overexpress a target of interest. Six targets were assessed: HER2, BCMA, CD38, CD48, CD79b, and CD33. […]
The ability of Mcl-1 ADCs to inhibit cell proliferation and survival was assessed using a Promega CellTiter-Glo® proliferation assay. […] Cell viability and cell density were determined using a cell counter (Vi-Cell XR Cell Viability Analyzer, Beckman Coulter). […] Plates were incubated at 5% CO2, 37° C. for 5 days in a tissue culture incubator, after which cell viability was assessed through the addition of 25 μl of CellTiter Glo® (Promega, Cat. No. G7573), a reagent which lyses cells and measures total adenosine triphosphate (ATP) content. Plates were incubated at room temperature for 10 minutes to stabilize luminescent signals prior to reading using a luminescence reader (EnVision Multilabel Plate Reader, PerkinElmer). […]

m07e = assay: In vitro ADC activity, AML cell lines, CellTiter-Glo (Example 20); settings: 5 days
mv411 = assay: as above; settings: mv411, 5 days
f36p = assay: as above; settings: 5 days
[2] = BCMA Mcl-1 ADCs (Table 29) and payload P1, 5 days
[3] = CD48 Mcl-1 ADCs (Table 25) and payload P1, 5 days

IC50 (RS4;11; Homo sapiens, RS4-11, 120 h, read-out: IC50 (nM) RS, 411): 0.299 nM
IC50 (NCI-H929; [2]): 5.61 nM
IC50 (NCI-H929; [3]): 0.394 nM
IC50 (HCC1954; Homo sapiens, HCC1954, 120 h): 63.5 nM
IC50 (MOLM-13; Homo sapiens, MOLM-13, 120 h, read-out: IC50 (nM) MOLM13): 2.44 nM
IC50 (HCC2218; Homo sapiens, HCC2218, 120 h): 14.1 nM
IC50 ([1]; HER2-positive cancer cell lines): 10 to 60 nM
IC50 ([1]; representative cancer cell lines except HER2-positive): 0.038 to 5.6 nM
GI50 (mv411; Homo sapiens, MV4-11, 120 h): 1 nM
SMILES: COc1ccccc1-c1nccc(COc2ccccc2C[C@@H](Oc2ncnc3sc(-c4ccc(F)cc4)c(-c4ccc(OCCN5CCN(C)CC5)c(Cl)c4C)c23)C(=O)O)n1 [P1, (2R)-2-[5-[3-chloro-2-methyl-4-[2-(4-methylpiperazin-1-yl)ethoxy]phenyl]-6-(4-fluorophenyl)thieno[2,3-d]pyrimidin-4-yl]oxy-3-[2-[[2-(2-methoxyphenyl)pyrimidin-4-yl]methoxy]phenyl]propanoic acid]
GI50 (eol1; Homo sapiens, 120 h): 1 nM
Amax (eol1; in % (unit assumed)): −91
Amax (p31fuj; in % (unit assumed)): −73
GI50 (p31fuj; Homo sapiens, P31-FUJ, 120 h): 116 nM
GI50 (5979hx; 120 h): 1 nM
Amax (5979hx): −83
Amax (hel; unit assumed): 4%
GI50 (hel; Homo sapiens, 120 h): 6090 nM
GI50 (kasumi6; 120 h): 4 nM
Amax (kasumi6; in % (unit assumed)): −96
GI50 (monomac1; Mono-Mac-1, 120 h): 1 nM
Amax (monomac1; in % (unit assumed)): −66
GI50 (kasumi1; Homo sapiens, Kasumi 1, 120 h): 37 nM
Amax (kasumi1; in % (unit assumed)): −87
Amax RS; 411 (RS4;11): 132.40
Amax H929 (NCI-H929; [2]): 89.16
Amax H929 (NCI-H929; [3]): 25.79
Amax OPM2 (OPM-2): 22.97
IC50 (OPM-2; Homo sapiens, OPM-2, 120 h, read-out: IC50 (nM) OPM2): 0.136 nM
Amax HCC1954 (HCC1954; unit assumed): 64.8%
Amax MOLM13 (MOLM-13): 128.80
Amax HCC2218 (HCC2218; in % (unit assumed)): 100.40
Amax (m07e; in % (unit assumed)): −74
GI50 (m07e; M-07e, 120 h): 94 nM
Amax (mv411; in % (unit assumed)): −72
GI50 (f36p; 120 h): > 10000 nM
Amax (f36p; unit assumed): 51%
